We go through two compounds from paper PMC4826920 (Evidence-based Complementary and Alternative Medicine : eCAM, 2016).

Data set [1] addresses T1, recombinant human MAO-A (hMAO-A) (Homo sapiens, UniProt P21397).
T1 construct: purchased Sigma-Aldrich
T1 sequence (P21397 1-527): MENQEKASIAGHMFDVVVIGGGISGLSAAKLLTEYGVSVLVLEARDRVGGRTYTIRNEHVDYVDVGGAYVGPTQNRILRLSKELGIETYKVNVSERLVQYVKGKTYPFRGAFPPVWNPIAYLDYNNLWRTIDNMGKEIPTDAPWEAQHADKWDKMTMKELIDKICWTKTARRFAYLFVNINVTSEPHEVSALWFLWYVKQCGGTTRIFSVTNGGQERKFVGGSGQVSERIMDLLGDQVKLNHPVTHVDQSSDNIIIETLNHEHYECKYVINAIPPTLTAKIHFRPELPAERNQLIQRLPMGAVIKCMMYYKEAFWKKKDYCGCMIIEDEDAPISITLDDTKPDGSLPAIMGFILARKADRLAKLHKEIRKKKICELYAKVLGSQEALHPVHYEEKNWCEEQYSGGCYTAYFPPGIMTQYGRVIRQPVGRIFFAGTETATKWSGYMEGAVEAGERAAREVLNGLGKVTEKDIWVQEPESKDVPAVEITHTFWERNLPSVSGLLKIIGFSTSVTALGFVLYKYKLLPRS
The experiment in a line: MAO-Glow luminescence assay, hMAO-A inhibition. It counts as biochemical. The note with it: up to 250 μM tested. How it is done: (§1) All analyses were performed by GraphPad Prism Software 6.02 (San Diego, CA, USA). IC50 values were determined by nonlinear regression best-fit model of normalized response with variable slope. The inhibitor constant (K i) values were obtained from the competitive inhibition model. Lineweaver-Burk plot was obtained from Michaelis-Menten data. Relative selectivity (RS) folds were defined by the ratio of hMAO-A IC50 to hMAO-B IC50. The significance of the difference between two groups was determined using an unpaired t-test, between the control and treatments using one-way ANOVA followed by Dunnett's multiple comparisons tests and between two sets of data using two-way ANOVA followed by Sidak's multiple comparisons test.

In data set [2] the target is T2, recombinant human MAO-B (hMAO-B) (Homo sapiens, UniProt P27338).
T2 construct: purchased Sigma-Aldrich
T2 sequence (P27338 1-520): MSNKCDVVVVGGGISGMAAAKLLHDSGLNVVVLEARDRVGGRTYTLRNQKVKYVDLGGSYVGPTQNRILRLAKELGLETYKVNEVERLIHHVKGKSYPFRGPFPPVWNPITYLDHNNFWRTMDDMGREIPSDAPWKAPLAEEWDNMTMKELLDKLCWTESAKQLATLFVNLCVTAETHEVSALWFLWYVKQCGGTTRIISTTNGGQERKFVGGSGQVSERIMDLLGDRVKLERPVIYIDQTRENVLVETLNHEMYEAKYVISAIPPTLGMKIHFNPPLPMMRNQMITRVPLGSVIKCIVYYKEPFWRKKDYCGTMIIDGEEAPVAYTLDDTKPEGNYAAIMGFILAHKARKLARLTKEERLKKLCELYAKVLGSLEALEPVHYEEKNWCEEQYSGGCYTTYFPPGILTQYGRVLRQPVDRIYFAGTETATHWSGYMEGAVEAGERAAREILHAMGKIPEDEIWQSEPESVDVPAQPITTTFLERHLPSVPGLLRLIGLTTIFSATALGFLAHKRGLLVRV
The experiment in a line: MAO-Glow luminescence assay, hMAO-B inhibition. The format is biochemical. How it is done:
as §1, with “IC50” for “All analyses were performed by GraphPad Prism Software 6.02 (San Diego, CA, USA). IC50”

In a further data set the test system is rat MAO. As to conditions: cited from earlier work.
Data set [3] concerns the target T3, hMAO-A (Homo sapiens, UniProt P21397).
T3 construct: purchased Sigma-Aldrich
T3 sequence (P21397 1-527): T1 sequence (P21397 1-527)
The experiment in a line: Recovery by dilution assay, hMAO-A. It counts as biochemical. How it is done: (§2) The microplates were then incubated for 30, 40, 50, and 60 min. RLDR was added, and luminescence was measured as mentioned above.

For data set [4], the target named is T4, hMAO-B (Homo sapiens, UniProt P27338).
T4 construct: purchased Sigma-Aldrich
T4 sequence (P27338 1-520): T2 sequence (P27338 1-520)
Briefly: Recovery by dilution assay, hMAO-B. The format is biochemical. As to the method: as §2

Data set [5] deals with T3, hMAO-A. The experiment in a line: Michaelis-Menten kinetics (mode of inhibition), hMAO-A. The format is biochemical. How it is done:
(§3) After 1.5 h of incubation, RLDR was added, and the luminescence signal was detected as mentioned in the hMAO-A and hMAO-B assay.
as §1

Data set [6] concerns the target T4, hMAO-B. The experiment in a line: Michaelis-Menten kinetics (mode of inhibition), hMAO-B. The format is biochemical. As to the method:
as §3
as §1, with “IC50” for “All analyses were performed by GraphPad Prism Software 6.02 (San Diego, CA, USA). IC50”

For data set [7] the following is noted: oral 54 mg/day, postmenopausal women; cited from earlier work.
The subject of another data set is bovine plasma MAO. On the set-up: method as in PMID 1913999. As to conditions: cited from earlier work.
The mark [8] stands for this setting: 40 min preincubation at 10x IC50, 100-fold dilution, vs negative control.
[9] abbreviates: 40 min preincubation at 100x IC50, 100-fold dilution, vs negative control.
[10] abbreviates: up to 60 min at RT, maximum 100x IC50.

Consider `O=c1c(-c2ccc(O)cc2)coc2cc(O)ccc12` [DZ, Daidzein], for which, in data set [1], the hMAO-A inhibitory effect result is reported as “minor or partial inhibitory effect”. The hMAO-B inhibitory effect result in data set [2] (up to 250 μM tested) is given as “minor or partial inhibitory effect”. Also, the “Rat MAO inhibition” value with rat MAO is listed as “no significant rat MAO inhibition”.

On to `O=c1c(-c2ccc(O)cc2)coc2cc(O)cc(O)c12` [GST, Genistein], for which, in data set [2] (from IC50 values), the “hMAO-B potency as % of DEP potency” value is given as 1.4%. Besides, the “hMAO-A residual catalytic rate after dilution to 0.1x IC50” value at hMAO-A [3] (setting [8]) turned out to be 86.8%. For the same compound, at hMAO-A [3] (setting [9]), the “hMAO-A residual catalytic rate after dilution to 1x IC50” value was 42.3%. Further, the “Reversibility of hMAO-A inhibition” value on hMAO-A [3] (setting [10]) is “reversible inhibitor”. For the same compound, the “hMAO-B residual catalytic rate after dilution to 0.1x IC50” value on hMAO-B [4] (setting [8]) came out at 86.1%. Also, the “hMAO-B residual catalytic rate after dilution to 1x IC50” value at hMAO-B [4] (setting [9]) is given as 47.1%. Besides, the “Reversibility of hMAO-B inhibition” value at hMAO-B [4] (setting [10]) is “reversible inhibitor”. For the same compound, the “Change in Vmax, hMAO-A” value on hMAO-A [5] (GST 5, 10, 20 μM, p = 0.10) was “no significant change”. At hMAO-A [5] (Lineweaver-Burk, LDS substrate), the “Mode of hMAO-A inhibition” value is recorded as “competitive”. For the same compound, the “Change in Vmax, hMAO-B” value at hMAO-B [6] (GST 5, 10, 20 μM, p = 0.44) is reported as “no significant change”. In addition, the “Mode of hMAO-B inhibition” value on hMAO-B [6] (Lineweaver-Burk, LDS substrate) is “competitive”. Further, the “hMAO-B Ki lower than hMAO-A Ki” value on hMAO-B [6] (ratio of Ki values) was 3.0 fold. In addition, in data set [7], the Steady-state level result is reported as “up to 1.00 μM”. In addition, the “Bovine plasma MAO inhibition” value with bovine plasma MAO is reported as “weak bovine plasma MAO inhibition”.
